{"source": "patent EP2292587A1", "about": "“PHARMACEUTICAL COMPOSITION FOR INHIBITING THE TRANSCRIPTION FACTOR INDUCIBLE BY HYPOXIA, MODULATORS OF PATHOLOGICAL PROCESSES OF ANGIOGENESIS, ONCOGENESIS, INFLAMMATION, APOPTOSIS, AND CELLULAR THERAPY” (Fundacion De La Comunidad Valenciana Centro De …, priority 2008, dated 2009)", "key": {"epSPCs": {"system": "epSPCs", "assay": "differentiation of epSPCs into oligodendrocytes (immunocytochemistry)", "format": "cell-based, rat", "details": "500 nM, 1% O2", "excerpt": "The hypoxic condition blocks stem cell differentiation, and it is well acknowledged that this process is due to the activity of the HIF proteins. The exposure of ependymal stem cells to a low concentration of oxygen (1% O2) prevents the progress of differentiation aimed at the oligodendrocyte glial strain, clearly shown by both the morphological characteristics of the culture and by the low expression of typical markers of this cell strain (NG2, RIP, 04).\nThe analysis of the expression of the cell markers Rip, NG2 and 04 in the presence or absence of FM19G11 under normoxic and/or hypoxic conditions was carried out by immunocytochemical techniques (Figure 15). After fixing the cell culture with paraformaldehyde (4%), it was permeabilized with Triton (0.05%) for 10 minutes, and after blocking non-specific bindings with fetal bovine serum (1%), it was incubated with the corresponding antibodies (acquired from Chemicon, USA). Secondary antibodies conjugated with different fluorochromes, rhodamine in rabbit IgG and fluorescein in mouse IgG, reveal the specific labeling of the primary antibodies. DAPI (Sigma Aldrich Co, UK) was used for the counterstaining of the nuclei."}, "[1]": {"system": "histone deacetylase (HDAC)", "assay": "HDAC Fluorimetric Cellular Activity Assay, HeLa cell extracts", "format": "cell-based", "details": "different concentrations", "description": "Since FM19G11 was capable of affecting the degree of acetylation of histone H3 and therefore the conformation of chromatin, it was evaluated if FM19G11 favored the transfer of acetyl groups to histone H3 or, on the contrary, prevented histone H3 from being deacetylated. Both effects would cause an increase of the degree of acetylation of histone H3. Immunoprecipitation assays were performed with an antibody recognizing acetyltransferase p300 and then assays for measuring the acetyltransferase activity by means of using the kit \"HAT Colorimetric Assay\" (BioVision) were carried out. This method consists of detecting NADH since peptide acetylation causes the release of the free form of Coenzyme A, which serves as an essential coenzyme for producing NADH.\nThe protein extracts were previously immunoprecipitated with an anti-p300 antibody and the acetyltransferase activity measured by the detection of NADH. The evaluation of the histone deacetylase (HDAC) activity (Figure 34 B) was carried out with protein extracts of HeLa cells treated with different concentrations of FM19G11. As a positive control, a fixed concentration of TSA (1 µM) was included and extracts of untreated cells were used as a control. The experiments were carried out following the instructions of the Biomol kit for detecting histone deacetylase activity (HDAC Fluorimetric Cellular Activity Assay, Biomol, Cat. No. AK-503). […]"}, "HIF-1α": {"system": "HIF-1α", "assay": "Western blot of HIF-1alpha in dental pulp stem cells", "format": "cell-based, human", "details": "0.5 µM, physical hypoxia", "excerpt": "(§1) The culture medium used was Low-Glucose DMEM supplemented with 10% fetal bovine serum. The human dental pulp mesenchymal stem line [Gronthos S, et al., \"Postnatal human dental pulp stem cells (DPSCs) in vitro and in vivo\" Proc Natl Acad Sci U S A, 2000 Dec 5; 97(25):13625-30.; Gronthos S et al.,.\" Stem cell properties of human dental pulp stem cells\" J Dent Res, 2002 Aug; 81(8):531-5], obtained from human third molars from adults (19-29 years of age), was provided by the Cardioregeneration Dept. of the CIPF. The cells were seeded at a density of 2000 cells/cm^2, and when they reached a 90% confluence they were subcultured again by means of trypsinization.\nThe dental pulp cells were seeded at 2000 cells/cm^2 in 21 cm^2 plates. […]"}, "HCT116/p53+/+": {"system": "HCT116/p53+/+", "assay": "clonicity assay, HCT116/p53+/+", "format": "cell-based", "details": "Homo sapiens, HCT-116; stimulated 72 hours, colonies counted after 10 days; read-out: survival IC50", "description": "Clonicity assays were conducted to determine the toxicity of FM19G11 in p53-proficient (HT29 and HCT116/p53^+/+) and p53-deficient (HCT116/p53^-/-) tumor cells. Once the HT-29, HCT116/p53^+/+ and HCT116/p53^-/- cells were adhered to the culture plate, they were stimulated with increasing concentrations of FM19G11 (0.5, 1, 5, 10, 20, 50 µM) for 72 hours. After 10 days of stimulation, the number of colonies formed in the plates of treated and untreated cells was determined.\nResults of the clonicity assays of HT29 human colon cancer cells, HCT116 cells treated with FM19G11 were monitored up to 10 after the treatment (Figure 28). The IC50 was determined by extrapolating the percentage with the concentration. FM19G11 was used at concentrations: 0.5, 1, 5, 10, 50, 100, 200 µM"}, "VEGF and COX-2": {"system": "VEGF and COX-2", "assay": "qPCR of VEGF and COX-2 in dental pulp stem cells", "format": "cell-based, human", "details": "0.5 µM", "excerpt": "as §1\nTotal RNA was isolated using the commercial kit RNAeasy (Qiagen) and following the manufacturer's instructions. 1 µg of total RNA of each sample was retrotranscribed using the commercial kit Reverse Transcription Reagent (Applied Biosystem). The quantitative polymerase chain reaction (qPCR) was carried out using Taqman probes and primers designed by Applied Biosystem for hsVEGF (Ref HS00173626_m1), hsCOX-2 (Ref Hs00153133_m1) and hsGAPDH (Ref HS 99999905_m1). […] The expression levels of VEGF and COX-2 were expressed as the increase of Ct with respect to the expression levels of GAPDH (constitutive expression gene): Ct (ΔCt)=Ct (VEGF or […])-Ct (GAPDH). […]"}}, "data": [{"smiles": "Cc1ccc(C(=O)COC(=O)c2cccc(NC(=O)c3ccc([N+](=O)[O-])cc3[N+](=O)[O-])c2)cc1", "note": "[FM19G11, 2-oxo-2-(p-tolyl)ethyl 3-((2,4-dinitro)benzamido)benzoate]", "values": [{"measurement": "expression levels of the oligodendrocyte markers (NG2, RIP, 04) and phenotype", "setting": "epSPCs", "value": "recovers the expression levels"}, {"measurement": "activity as a histone deacetylase inhibitor", "setting": "[1]", "value": "did not show activity"}, {"measurement": "expression of HIF-1α", "setting": "HIF-1α", "value": "inhibited"}, {"measurement": "IC50", "setting": "HCT116/p53+/+", "value": 3.5, "unit": "µM"}, {"measurement": "increase of both VEGF and COX-2 (mRNA)", "setting": "VEGF and COX-2; hypoxic conditions, 6 and 18 hours", "value": "inhibited"}, {"measurement": "expression levels of VEGF and COX-2", "setting": "VEGF and COX-2; normoxic conditions", "value": "did not cause any effect"}]}]}
